From publication doi:10.1101/2025.06.09.658245v1 (biorxiv, 2025) come the findings set out here.

As usually defined, the inhibition is the relative decrease from the control value, in per cent. Usually half-life stands for the time in which the quantity being followed falls by half. Low readings indicate rapid decline, high ones slow decline. The term microsomal CLint denotes a measure of how fast metabolising enzymes remove a compound, apart from limits set by blood flow. A low value points to slow turnover.

The target of one data set is T1, hALOX12B (Homo sapiens, UniProt O75342).
T1 sequence (O75342 1-701): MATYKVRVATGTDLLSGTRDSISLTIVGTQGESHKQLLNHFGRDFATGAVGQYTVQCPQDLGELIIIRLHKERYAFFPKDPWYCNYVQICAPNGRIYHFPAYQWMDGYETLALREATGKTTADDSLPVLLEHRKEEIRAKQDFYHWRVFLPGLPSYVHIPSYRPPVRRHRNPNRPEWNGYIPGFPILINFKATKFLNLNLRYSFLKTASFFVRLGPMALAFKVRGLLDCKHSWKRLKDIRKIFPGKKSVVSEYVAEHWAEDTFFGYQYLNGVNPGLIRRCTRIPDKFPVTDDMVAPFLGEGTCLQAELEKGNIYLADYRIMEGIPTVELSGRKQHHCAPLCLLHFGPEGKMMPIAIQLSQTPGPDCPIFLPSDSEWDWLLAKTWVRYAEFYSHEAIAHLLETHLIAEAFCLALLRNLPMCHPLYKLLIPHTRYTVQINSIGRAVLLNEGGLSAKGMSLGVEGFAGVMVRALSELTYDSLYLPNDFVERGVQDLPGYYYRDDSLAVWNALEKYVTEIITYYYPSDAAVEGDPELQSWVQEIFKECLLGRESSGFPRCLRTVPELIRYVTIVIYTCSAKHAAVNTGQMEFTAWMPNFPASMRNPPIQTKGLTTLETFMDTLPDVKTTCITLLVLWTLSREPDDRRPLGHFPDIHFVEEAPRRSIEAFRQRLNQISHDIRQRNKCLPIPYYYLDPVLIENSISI
The data set can be described thus: biochemical. The note with it: read-out: % inhibition of ALOX12B enzyme activity.

The nature of data set [1]: in vitro. The note with it: mouse, liver microsomes. A general note: Liver microsomes are a subcellular fraction often used to study metabolism.
Data set [2] in a line: in vitro. The note with it: mouse, liver microsomes. The source holds these as a separate data set.
The target of data set [3] is T2, hERG (Homo sapiens, UniProt Q12809). The data set can be described thus: in vitro. The note with it: HEK.
T2 sequence (Q12809 whole entry): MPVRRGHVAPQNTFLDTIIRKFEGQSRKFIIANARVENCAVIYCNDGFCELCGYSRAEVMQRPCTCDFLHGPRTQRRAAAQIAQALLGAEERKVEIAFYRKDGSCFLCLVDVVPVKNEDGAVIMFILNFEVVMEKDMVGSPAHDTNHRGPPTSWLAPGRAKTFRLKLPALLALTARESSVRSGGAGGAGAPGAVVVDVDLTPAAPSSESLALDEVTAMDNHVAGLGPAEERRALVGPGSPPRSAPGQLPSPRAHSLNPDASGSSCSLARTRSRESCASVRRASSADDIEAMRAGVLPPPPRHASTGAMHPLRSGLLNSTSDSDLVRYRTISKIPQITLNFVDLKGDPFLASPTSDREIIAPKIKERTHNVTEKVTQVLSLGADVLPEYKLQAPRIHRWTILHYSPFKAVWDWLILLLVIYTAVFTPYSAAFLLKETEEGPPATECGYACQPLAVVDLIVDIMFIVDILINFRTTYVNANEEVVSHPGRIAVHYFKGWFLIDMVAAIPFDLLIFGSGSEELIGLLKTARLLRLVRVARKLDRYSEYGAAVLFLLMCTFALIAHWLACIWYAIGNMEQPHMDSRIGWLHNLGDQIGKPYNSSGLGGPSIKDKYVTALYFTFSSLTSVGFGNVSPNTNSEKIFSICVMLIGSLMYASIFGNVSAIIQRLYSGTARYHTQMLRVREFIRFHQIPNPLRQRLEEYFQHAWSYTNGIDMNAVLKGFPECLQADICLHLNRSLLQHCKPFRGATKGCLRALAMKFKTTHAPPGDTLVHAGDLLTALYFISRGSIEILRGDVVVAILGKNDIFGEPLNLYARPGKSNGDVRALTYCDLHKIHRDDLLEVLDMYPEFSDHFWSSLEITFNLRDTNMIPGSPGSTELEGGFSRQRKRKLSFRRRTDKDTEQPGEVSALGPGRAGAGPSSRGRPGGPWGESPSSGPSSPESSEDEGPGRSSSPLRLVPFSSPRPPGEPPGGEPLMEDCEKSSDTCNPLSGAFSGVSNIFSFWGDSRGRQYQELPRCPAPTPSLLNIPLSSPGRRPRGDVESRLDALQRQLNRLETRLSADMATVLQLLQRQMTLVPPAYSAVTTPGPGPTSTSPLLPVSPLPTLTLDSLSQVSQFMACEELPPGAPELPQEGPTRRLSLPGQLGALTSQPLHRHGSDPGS
For data set [4], the target named is T2, hERG. The data set can be described thus: in vitro. The note with it: HEK. This is another data set of the same source.
Data set [5] deals with T2, hERG. The data set can be described thus: whole-cell patch clamp, IKr current. It counts as cell-based. To be noted: test concentrations 0.3 to 30 µM; HEK cells stably transfected.

Molecules are shown by their SMILES.

For the compound `Nc1ccc(O)cc1-c1cc(=O)c2ccccc2o1` [6a, 2-(2-amino-5-hydroxyphenyl)-4H-chromen-4-one], at hALOX12B, the inhibition at 10 µM was around 23%, the inhibition at 100 µM was around 40% and the inhibition at 200 µM is around 52%. Also, the half-life at 5 µM in “in vitro [1]” was found to be 8.25 h. Further, the microsomal CLint at 5 µM in “in vitro [2]” stood at 5.6 µL/min/mg. Moreover, on hERG [3], the inhibition at 0.3 µM is 13.3%, the inhibition at 1 µM was 14.1%, the inhibition at 3 µM is 10.6% and the inhibition at 10 µM worked out at 10.9%. Besides, the inhibition at 30 µM against hERG [3] was determined as 9.05%. For the same compound, on hERG [4], the inhibition at 0.1 µM was -8.53%.
As for `Nc1ccc(O)cc1-c1cc(=O)c2ccccc2o1` [6a], the “% reduction of hERG current at 0.3 to 30 μM” value at hERG [5] is 9-14%.
